This note sets out measurements from ChEMBL document CHEMBL1201862, “PubChem BioAssay data set” (2004).

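Where inhibition never reached the appropriate level, the endpoint shown equals the highest concentration tested. Otherwise, values were interpolated linearly from a five-concentration, 48-hour dose response in 96-well plates. GI50: concentration for 50% inhibition of growth.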 The source made the active and inactive calls. Rule as the data show it: active = GI50 up to about 1.1 µM and inactive = higher.

Test systems include DLD-1; DMS-114; DMS-273; KM-20L2; M19-MEL; SNB-78; XF498; RXF 631; HOP-18.
Holding throughout (test): inhibition of tumour cell growth, NCI panel, 48 h

Consider `CCOC(=O)CSc1nnc(CSc2nc(-c3ccccc3)c(-c3ccccc3)[nH]2)n1-c1ccccc1`, for which the GI50 in the test on DLD-1 was > 100 µM (inactive); with DMS-114, 15.3 µM (inactive); in the test with DMS-273, > 100 µM (inactive); in the test on KM-20L2, 27.7 µM (inactive); with M19-MEL, 38.8 µM (inactive); in the test on SNB-78 it was 27.9 µM (inactive). Besides, in the test on XF498, the GI50 was 24.3 µM (inactive).
Take `C/C(CC(=O)Nc1ccccc1C)=N/NS(=O)(=O)c1ccc(C)cc1`: the GI50 in the test with DLD-1, with DMS-273, in the test with KM-20L2, with M19-MEL, with RXF 631 and in the test with SNB-78 was > 100 µM (inactive) each time. The GI50 with XF498 is > 100 µM (inactive).
Take `Cn1ccnc1CCc1c(Cl)cccc1Cl`: the GI50 was > 100 µM (inactive) in the test on DLD-1; > 100 µM (inactive) in the test on DMS-114; > 100 µM (inactive) in the test on DMS-273; 51.4 µM (inactive) in the test with HOP-18; > 100 µM (inactive) with KM-20L2; > 100 µM (inactive) in the test with M19-MEL. For the same compound, the GI50 in the test on SNB-78 was > 100 µM (inactive).
Take `CCCC(C)C[C@@H](C)CC(C)/C=C(\C)c1oc(=O)c(C)c(O)c1C.CC[C@@H](C)C[C@@H](C)C[C@@H](C)/C=C(\C)c1oc(=O)c(C)c(O)c1C` (stereo partly drawn): the GI50 in the test with DLD-1 was 13.5 µM (inactive); with DMS-114, 16.8 µM (inactive); in the test with DMS-273 it was 18.5 µM (inactive); in the test with KM-20L2, 12.6 µM (inactive); in the test on M19-MEL it was 10 µM (inactive); in the test with SNB-78 it was 20.9 µM (inactive).
For `CC(C(=O)c1ccc(Cl)cc1)C1OC(=O)C(Cl)=C1Cl` (stereo not drawn), the GI50 is 21.6 µM (inactive) in the test with DLD-1; 26.2 µM (inactive) with DMS-114; 50.4 µM (inactive) in the test on HOP-18; 86.1 µM (inactive) in the test with KM-20L2; 23 µM (inactive) in the test with M19-MEL; > 100 µM (inactive) in the test on RXF 631. In the test on XF498, the GI50 is 20.5 µM (inactive).
`COc1ccc([N+]2=NC(c3ccc([N+](=O)[O-])cc3)=NN(c3ccccc3)C2)cc1.[O-][Cl+3]([O-])([O-])[O-]`: the GI50 is 34.9 µM (inactive) in the test on DLD-1; 40.6 µM (inactive) with DMS-114; > 100 µM (inactive) in the test on DMS-273; 58.9 µM (inactive) in the test with KM-20L2; > 100 µM (inactive) in the test on SNB-78; 53.6 µM (inactive) in the test on XF498.
With `CC1=C(C(=O)Nc2cc(=O)n(C)c(=O)n2C)C(c2cccc([N+](=O)[O-])c2)C(C(=O)Nc2cc(=O)n(C)c(=O)n2C)=C(C)N1`, the GI50 was > 100 µM (inactive) in the test on DLD-1; 80.5 µM (inactive) with DMS-114; > 100 µM (inactive) in the test on KM-20L2; > 100 µM (inactive) in the test with M19-MEL; > 100 µM (inactive) in the test with SNB-78.
Turning to `COC(=O)CC(NC(=O)OCc1ccccc1)C(C(=O)OCc1ccccc1)C1(C)OCCO1` (stereo not drawn), the GI50 was 36.1 µM (inactive) with DLD-1; 23.6 µM (inactive) in the test with DMS-114; 39.5 µM (inactive) in the test on DMS-273; 45.5 µM (inactive) with KM-20L2; 30.2 µM (inactive) with M19-MEL; 34.9 µM (inactive) with RXF 631. In addition, in the test on XF498, the GI50 was 15.8 µM (inactive).
Regarding `O=NN(CCCl)C(=O)N[C@H]1CC[C@H](CC(=O)O)CC1`, the GI50 with DLD-1 is > 100 µM (inactive); in the test with DMS-114 it was 61.9 µM (inactive); with DMS-273, > 100 µM (inactive); in the test on HOP-18, > 78.7 µM (inactive); in the test with KM-20L2, > 46.5 µM (inactive); with M19-MEL, > 100 µM (inactive). Further, the GI50 with SNB-78 and with XF498 was > 100 µM (inactive) throughout.
For `Cc1no[n+]([O-])c1/C=N/NS(=O)(=O)c1ccccc1`, the GI50 in the test with DLD-1, with DMS-114, in the test on HOP-18, with KM-20L2 and in the test on M19-MEL was > 100 µM (inactive) in each case.
Regarding `O=C(CC1(O)C(=O)Nc2c(Cl)cc(Cl)cc21)c1cccc([N+](=O)[O-])c1` (stereo not drawn), the GI50 is 43.2 µM (inactive) in the test on DLD-1; 21.5 µM (inactive) with DMS-114; 39.4 µM (inactive) in the test with DMS-273; 32.3 µM (inactive) in the test on HOP-18; 52.1 µM (inactive) with KM-20L2; 5.14 µM (inactive) with M19-MEL. Besides, the results for the GI50 in the test with RXF 631, with SNB-78 and in the test on XF498 were 24.8 µM (inactive), 41.5 µM (inactive) and 20.7 µM (inactive), respectively.
Turning to `O=C1CCC2(CC1)SCCCS2`, the GI50 with DLD-1, in the test on DMS-114, in the test on DMS-273, with KM-20L2, in the test with M19-MEL and with XF498 was > 100 µM (inactive) each time.
Regarding `O=C1c2ccccc2CC1C1(O)C(=O)Nc2ccccc21` (stereo not drawn), the GI50 with DLD-1, in the test on DMS-114, in the test on DMS-273, in the test with KM-20L2, in the test on M19-MEL and in the test on RXF 631 was > 100 µM (inactive) throughout. Also, the GI50 in the test with SNB-78 was > 100 µM (inactive); in the test on XF498 it was 55.6 µM (inactive).
Regarding `N#C/C(=C\c1c(O)cc(O)cc1O)C(N)=O`, the GI50 in the test with DLD-1, with DMS-114, in the test on DMS-273, in the test on KM-20L2, in the test on RXF 631 and in the test on SNB-78 was > 100 µM (inactive) in each case. In addition, the GI50 in the test on XF498 is > 100 µM (inactive).
As for `O=C1N[C@H](Cc2c[nH]cn2)C(=O)N2CCC[C@@H]12`, the GI50 in the test with DLD-1, with DMS-114, in the test on DMS-273, with KM-20L2, with M19-MEL and in the test with SNB-78 was > 100 µM (inactive) throughout. For the same compound, the GI50 with XF498 was > 100 µM (inactive).
With `O=c1c(-c2cccc3ccccc23)c(-c2cccc3ccccc23)c1=O`, the GI50 is 3.28 µM (inactive) in the test with DLD-1; 2.1 µM (inactive) in the test on DMS-114; 1.71 µM (inactive) in the test with DMS-273; 39.8 µM (inactive) with HOP-18; 0.379 µM (active) in the test on KM-20L2; 3.07 µM (inactive) with M19-MEL. For the same compound, the GI50 with SNB-78 is 1.95 µM (inactive); in the test on XF498, 2.27 µM (inactive).
Take `Cc1cc(Cl)cc2c1NC(=O)C2(O)CC(=O)c1ccc(Br)cc1` (stereo not drawn): the GI50 in the test on DLD-1 is 50.8 µM (inactive); in the test on DMS-114, 34.8 µM (inactive); in the test on DMS-273, 47.8 µM (inactive); in the test with KM-20L2, > 91.4 µM (inactive); with M19-MEL, 22.5 µM (inactive); with RXF 631, > 71.3 µM (inactive). For the same compound, the GI50 in the test with XF498 was 30.2 µM (inactive).
As to `Cc1cc(O)c2c3c1C(=O)Oc1c(CO)c(O)c(C(=O)O)c(c1O3)C=NN=Cc1c3c(c(CO)c(O)c1C(=O)O)OC(=O)c1c(C)cc(O)c(c1O3)C=NN=C2`, the GI50 in the test with DLD-1 is > 100 µM (inactive); in the test on DMS-114 it was 51.5 µM (inactive); in the test with HOP-18, > 100 µM (inactive); with KM-20L2 it was > 100 µM (inactive); with M19-MEL it was > 100 µM (inactive); with SNB-78, > 100 µM (inactive). Moreover, in the test on XF498, the GI50 was > 100 µM (inactive).
For the compound `Cc1c(C(=O)CC(=O)C(=O)Nc2ccc(Cl)c(Cl)c2)[n+]([O-])c2ccccc2[n+]1[O-]`, the GI50 was 16.9 µM (inactive) in the test with DMS-114; 26 µM (inactive) in the test with DMS-273; 52.5 µM (inactive) in the test on KM-20L2; 15.7 µM (inactive) in the test on M19-MEL; 22.5 µM (inactive) with RXF 631; 48.9 µM (inactive) with SNB-78.
As for `Nc1nc(N)c2cc(CNc3ccc(C(=O)NC(CC(=O)O)C(=O)O)c(Cl)c3)ccc2n1` (stereo not drawn), the GI50 with DLD-1 was 0.038 µM (active); with DMS-114, < 0.01 µM (active); in the test on DMS-273, 0.0552 µM (active); in the test with HOP-18, > 100 µM (inactive); in the test on KM-20L2, 0.117 µM (active); in the test on M19-MEL, 0.596 µM (active). Moreover, the GI50 with SNB-78 was 56 µM (inactive).
As for `CCCCCCN(N)C(=O)CC#N`, the GI50 was 87.3 µM (inactive) in the test on DLD-1; 32.2 µM (inactive) in the test with DMS-114; > 100 µM (inactive) in the test on DMS-273; > 100 µM (inactive) with HOP-18; > 100 µM (inactive) in the test on KM-20L2; > 100 µM (inactive) in the test with M19-MEL. In addition, the GI50 with RXF 631 was 98.9 µM (inactive); in the test on SNB-78, > 100 µM (inactive).
For the compound `Cc1c(Cl)c2ccccc2n1S(=O)(=O)c1ccccc1`, the GI50 was 71.6 µM (inactive) in the test with DLD-1; 37.9 µM (inactive) in the test with DMS-114; 38.7 µM (inactive) with DMS-273; 26.5 µM (inactive) in the test with KM-20L2; > 100 µM (inactive) in the test on XF498.
With `C[N+](C)(C)CC(=O)N/N=C(/Cc1nc2ccc([N+](=O)[O-])cc2nc1O)C(=O)Nc1cc(C(F)(F)F)ccc1Cl`, the GI50 with DLD-1 was > 100 µM (inactive); with DMS-114, 75 µM (inactive); in the test with KM-20L2, > 100 µM (inactive); with M19-MEL it was > 100 µM (inactive); with RXF 631, > 100 µM (inactive).
On to `O/N=C1/C(=C/c2ccc(Cl)c(Cl)c2)CCCC1C(NO)c1ccc(Cl)c(Cl)c1` (stereo not drawn), for which the GI50 was 16.9 µM (inactive) in the test with DLD-1; 17.9 µM (inactive) with DMS-114; 18.8 µM (inactive) in the test on DMS-273; 16.3 µM (inactive) in the test on HOP-18; 17.9 µM (inactive) in the test with KM-20L2; 18.2 µM (inactive) with M19-MEL. Moreover, the results for the GI50 with SNB-78 and in the test with XF498 were 18.7 µM (inactive) and 16.3 µM (inactive), respectively.
As to `COc1ccccc1/C=C/C(=O)c1sc(-c2cccnc2)nc1C`, the GI50 in the test on DLD-1 is > 100 µM (inactive); in the test on DMS-114, > 100 µM (inactive); with DMS-273 it was > 100 µM (inactive); in the test with HOP-18 it was 76.6 µM (inactive); in the test with KM-20L2, > 100 µM (inactive); with M19-MEL, > 100 µM (inactive). In addition, in the test with SNB-78, the GI50 is > 100 µM (inactive).
For the compound `CO[C@H](c1ccccc1)[C@H](C)N(C)c1ccc2ccccc2c1C1=NC(C)(C)CO1`, the GI50 is 13 µM (inactive) in the test with DLD-1; 12.1 µM (inactive) in the test with DMS-114; 19.2 µM (inactive) in the test on DMS-273; 17.1 µM (inactive) with HOP-18; 13.4 µM (inactive) with KM-20L2; 15.3 µM (inactive) in the test on M19-MEL. Further, the GI50 was 15 µM (inactive) with RXF 631 and 17.1 µM (inactive) with XF498.
